Reference: US11279735B2, “Cyclic peptide antibiotics” (priority 2017, dated 2022)
In brackets after ≈: the same amount, converted by molar mass. *1 amine or outer side, *2 acyl side, *3 side chain or, on linkers, in order; H or OH if unused. Where a SMILES comes first, the peptide text is derived from it. [ ]: non-standard residue; d: D form. The star is where a group is joined. X13 = C[C@H](CO[C@H](CC1CC2(CCC2)C1)[C@@H](C)C(=O)[*:2])N[*:1]; X18 = CCCCCC[C@@H](OCCN[*:1])[C@@H](Cc1ccc(C)cc1)C(=O)[*:2]; X1 = CCCCCC[C@@H](C(=O)[*:2])[C@@H](C)OC[C@@H](C)N[*:1]; X2 = CCCCCC[C@@H](OC[C@@H](C)N[*:1])[C@@H](C)C(=O)[*:2]; X23 = CCCCCCCCCC[C@@H](OCCN[*:1])[C@@H](C)C(=O)[*:2]; Cyclobutyl(trans-3-NH2) = N[C@H]1C[C@H](*)C1; Gly(cHept) = N[C@H](C(=O)O)C1CCCCCC1; aIle = CC[C@@H](C)[C@H](N)C(=O)O; aThr = C[C@H](O)[C@H](N)C(=O)O; NMeL = CN[C@@H](CC(C)C)C(=O)O; Chg = N[C@H](C(=O)O)C1CCCCC1; NMeNva = CCC[C@H](NC)C(=O)O; Dap = NC[C@H](N)C(=O)O; Propyl(3-NH2) = NCCC*; X24 = NC[C@H](F)C*

tested on: Escherichia coli (E. coli) strain CFT073 ATCC 700928; format: cell-based; settings: ATCC 700928, 22 h
Procedure, shortened: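 MICs were read after 22 h at 35 °C, with bacteria added to a final OD600 of 0.0005. Compounds were serially diluted 2-fold over ten concentrations from a top of 64, 4, 0.5 or 0.13 μg/mL (protocols 1–4). Medium was cation-adjusted Mueller Hinton II broth plus 0.002% Tween-80, following CLSI M07-A8.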

Point of comparison: `CCCCCCCCCC[C@H]1OC(=O)CNC(=O)[C@H]([C@H](C)O)NC(=O)[C@H](CN)NC(=O)[C@H](CCCOC)NC(=O)[C@H](CC(C)C)N(C)C(=O)[C@@H]1C` [Example 87, (6S,9S,12S,15S,18R,19R)-9-(aminomethyl)-19-decyl-15-isobutyl-12-(3-methoxypropyl)-16,18-dimethyl-6-[(1S)-1-hydroxyethyl]-1-oxa-4,7,10,13,16-pentazacyclononadecane-2,5,8,11,14,17-hexone], MIC 50 µM (≈ 36.3 µg/mL). Against it:
- CCC[C@H]1C(=O)N[C@@H](C2CCCCC2)C(=O)N[C@@H](CN)C(=O)N[C@@H](COCCCN)C(=O)N[C@H](C)CO[C@H](CC2CC3(CCC3)C2)[C@@H](C)C(=O)N1C [Example 157, (3R,6S,9S,12S,15S,18R,19R)-9-(Aminomethyl)-6-((3-aminopropoxy)methyl)-12-cyclohexyl-3,16,18-trimethyl-15-propyl-19-(spiro[3.3]heptan-2-ylmethyl)-1-oxa-4,7,10,13,16-pentaazacyclononadecane-5,8,11,14,17-pentaone] (cyclo([Chg][Dap]S(Propyl(3-NH2))[X13][NMeNva])) — 4.2-fold lower, 12 µM (≈ 8.81 µg/mL)
- CCCCCC[C@H]1OC(=O)CNC(=O)[C@H](CNC(=O)CCN)NC(=O)[C@H](CN)NC(=O)[C@H](C2CCCCC2)NC(=O)[C@H](CC(C)C)N(C)C(=O)[C@@H]1C [Example 145, 3-amino-N-[[(6S,9S,12S,15S,18R,19R)-9-(aminomethyl)-12-cyclohexyl-19-hexyl-15-isobutyl-16,18-dimethyl-2,5,8,11,14,17-hexaoxo-1-oxa-4,7,10,13,16-pentazacyclononadec-6-yl]methyl]propanamide] — 4.2-fold lower, 12 µM (≈ 8.84 µg/mL)
- CC[C@@H](C)[C@@H]1NC(=O)[C@H](CC(C)C)N(C)C(=O)[C@H](C)[C@@H](CCCCC(C)(C)C)OC(=O)CNC(=O)[C@H]([C@H](C)O)NC(=O)[C@H](CN)NC1=O [Example 49, (6S,9S,12S,15S,18R,19R)-9-(aminomethyl)-19-(5,5-dimethylhexyl)-6-[(1S)-1-hydroxyethyl]-15-isobutyl-16,18-dimethyl-12-[(1R)-1-methylpropyl]-1-oxa-4,7,10,13,16-pentazacyclononadecane-2,5,8,11,14,17-hexone] — 16-fold lower, 3.1 µM (≈ 2.12 µg/mL)
- CCCCCC[C@H]1OC(=O)CNC(=O)[C@H]([C@H](C)O)NC(=O)[C@H](CN)NC(=O)[C@H](C2CCCCC2)NC(=O)[C@H](CC(C)C)N(C)C(=O)[C@@H]1CCc1ccc(-c2ccccc2)cc1 [Example 108, (6S,9S,12S,15S,18R,19R)-9-(aminomethyl)-12-cyclohexyl-19-hexyl-15-isobutyl-16-methyl-18-[2-(4-phenylphenyl)ethyl]-6-[(1S)-1-hydroxyethyl]-1-oxa-4,7,10,13,16-pentazacyclononadecane-2,5,8,11,14,17-hexone] — within 1.5-fold, 35 µM (≈ 29.6 µg/mL)
- CCCCCC[C@H]1C(=O)N(C)[C@@H](CCC)C(=O)N[C@@H](C2CCCCC2)C(=O)N[C@@H](CN)C(=O)N[C@@H]([C@H](C)O)C(=O)N[C@H](C)CO[C@@H]1C [Example 150, (3R,6S,9S,12S,15S,18R,19R)-9-(Aminomethyl)-12-cyclohexyl-18-hexyl-6-((S)-1-hydroxyethyl)-3,16,19-trimethyl-15-propyl-1-oxa-4,7,10,13,16-pentaazacyclononadecane-5,8,11,14,17-pentaone] (cyclo([Chg][Dap][aThr][X1][NMeNva])) — 2-fold lower, 25 µM (≈ 16.7 µg/mL)
- CCC[C@H]1C(=O)N[C@@H](C2CCCCCC2)C(=O)N[C@@H](CN)C(=O)N[C@@H](CO[C@H]2C[C@H](N)C2)C(=O)N[C@H](C)CO[C@H](CC2CC3(CCC3)C2)[C@@H](C)C(=O)N1C [Example 164, (3R,6S,9S,12S,15S,18R,19R)-6-(((1r,3S)-3-Aminocyclobutoxy)methyl)-9-(aminomethyl)-12-cycloheptyl-3,16,18-trimethyl-15-propyl-19-(spiro[3.3]heptan-2-ylmethyl)-1-oxa-4,7,10,13,16-pentaazacyclononadecane-5,8,11,14,17-pentaone] (cyclo([Dap]S(Cyclobutyl(trans-3-NH2))[X13][NMeNva][Gly(cHept)])) — 23-fold lower, 2.2 µM (≈ 1.67 µg/mL)
- CCCCCCCCCC[C@H]1OC(=O)CNC(=O)[C@H](COCCCN)NC(=O)[C@H](CO)NC(=O)[C@H]([C@@H](C)CC)NC(=O)[C@H](CC(C)C)N(C)C(=O)[C@@H]1C [Example 95, (6S,9S,12S,15S,18R,19R)-6-(3-aminopropoxymethyl)-19-decyl-9-(hydroxymethyl)-15-isobutyl-16,18-dimethyl-12-[(1S)-1-methylpropyl]-1-oxa-4,7,10,13,16-pentazacyclononadecane-2,5,8,11,14,17-hexone] — 3.6-fold lower, 14 µM (≈ 10.6 µg/mL)
- CCCC(C)(C)CC[C@H]1OC(=O)CNC(=O)[C@H]([C@H](C)O)NC(=O)[C@H](CN)NC(=O)[C@H]([C@H](C)CC)NC(=O)[C@H](CC(C)C)N(C)C(=O)[C@@H]1C [Example 103, (6S,9S,12S,15S,18R,19R)-9-(aminomethyl)-19-(3,3-dimethylhexyl)-15-isobutyl-16,18-dimethyl-6-[(1S)-1-hydroxyethyl]-12-[(1R)-1-methylpropyl]-1-oxa-4,7,10,13,16-pentazacyclononadecane-2,5,8,11,14,17-hexone] — 16-fold lower, 3.1 µM (≈ 2.12 µg/mL)
- CCCCCC[C@H]1OC[C@@H](C)NC(=O)[C@H](COCCCN)NC(=O)[C@H](CO)NC(=O)[C@H](C2CCCCC2)NC(=O)[C@H](CCC)N(C)C(=O)[C@@H]1C [Example 130, (3R,6S,9S,12S,15S,18R,19R)-6-(3-aminopropoxymethyl)-12-cyclohexyl-19-hexyl-9-(hydroxymethyl)-3,16,18-trimethyl-15-propyl-1-oxa-4,7,10,13,16-pentazacyclononadecane-5,8,11,14,17-pentone] (cyclo([Chg]SS(Propyl(3-NH2))[X2][NMeNva])) — within 1.5-fold, 44 µM (≈ 31.3 µg/mL)
- CCCCCCCCCC[C@H]1OCCNC(=O)[C@H]([C@H](C)O)NC(=O)[C@H](CN)NC(=O)[C@H]([C@H](C)CC)NC(=O)[C@H](CC(C)C)N(C)C(=O)[C@@H]1C [Example 47, (6S,9S,12S,15S,18R,19R)-9-(aminomethyl)-19-decyl-6-[(1S)-1-hydroxyethyl]-15-isobutyl-16,18-dimethyl-12-[(1R)-1-methylpropyl]-1-oxa-4,7,10,13,16-pentazacyclononadecane-5,8,11,14,17-pentone] (cyclo([Dap][aThr][X23][NMeL][aIle])) — 16-fold lower, 3.1 µM (≈ 2.16 µg/mL)
- CCCCCC[C@H]1OC[C@@H](C)NC(=O)[C@H]([C@H](C)OCCCN)NC(=O)[C@H](CN)NC(=O)[C@H](C2CCCCC2)NC(=O)[C@H](CC(C)C)N(C)C(=O)[C@@H]1C [Example 70, (3R,6S,9S,12S,15S,18R,19R)-9-(Aminomethyl)-6-((S)-1-(3-aminopropoxy)ethyl)-12-cyclohexyl-19-hexyl-15-isobutyl-3,16,18-trimethyl-1-oxa-4,7,10,13,16-pentaazacyclononadecane-5,8,11,14,17-pentaone] (cyclo([Chg][Dap][aThr](Propyl(3-NH2))[X2][NMeL])) — 3.3-fold lower, 15 µM (≈ 11.1 µg/mL)
- CCCCCCCCCC[C@H]1OC(=O)CNC(=O)[C@H](COCCO)NC(=O)[C@H](CO)NC(=O)[C@H]([C@@H](C)CC)NC(=O)[C@H](CC(C)C)N(C)C(=O)[C@@H]1C [Example 48, (6S,9S,12S,15S,18R,19R)-19-decyl-6-(2-hydroxyethoxymethyl)-9-(hydroxymethyl)-15-isobutyl-16,18-dimethyl-12-[(1S)-1-methylpropyl]-1-oxa-4,7,10,13,16-pentazacyclononadecane-2,5,8,11,14,17-hexone] — the same, 50 µM (≈ 37.1 µg/mL)
- COC(C)(C)CCCCCC[C@H]1OC(=O)CNC(=O)[C@H]([C@H](C)O)NC(=O)[C@H](CN)NC(=O)[C@H](C2CCCCC2)NC(=O)[C@H](CC(C)C)N(C)C(=O)[C@@H]1C [Example 64, (6S,9S,12S,15S,18R,19R)-9-(Aminomethyl)-12-cyclohexyl-6-((S)-1-hydroxyethyl)-15-isobutyl-19-(7-methoxy-7-methyloctyl)-16,18-dimethyl-1-oxa-4,7,10,13,16-pentaazacyclononadecane-2,5,8,11,14,17-hexaone] — 23-fold lower, 2.2 µM (≈ 1.66 µg/mL)
- CCCCCCCCCC[C@H]1OC(=O)CNC(=O)[C@H]([C@H](C)O)NC(=O)[C@H](CN)NC(=O)[C@H]([C@H](C)CC)NC(=O)[C@H](CCc2ccccc2)N(C)C(=O)[C@@H]1C [Example 88, (6S,9S,12S,15S,18R,19R)-9-(aminomethyl)-19-decyl-16,18-dimethyl-15-(2-phenylethyl)-6-[(1S)-1-hydroxyethyl]-12-[(1R)-1-methylpropyl]-1-oxa-4,7,10,13,16-pentazacyclononadecane-2,5,8,11,14,17-hexone] — the same, 50 µM (≈ 38 µg/mL)
- CCCCCC[C@H]1OCCNC(=O)[C@H](CO)NC(=O)[C@H](CN)NC(=O)[C@H]([C@H](C)CC)NC(=O)[C@H](CC(C)C)N(C)C(=O)[C@@H]1Cc1ccc(C)cc1 [Example 110, (6S,9S,12S,15S,18R,19R)-9-(aminomethyl)-19-hexyl-6-(hydroxymethyl)-15-isobutyl-16-methyl-18-(p-tolylmethyl)-12-[(1R)-1-methylpropyl]-1-oxa-4,7,10,13,16-pentazacyclononadecane-5,8,11,14,17-pentone] (cyclo([Dap]S[X18][NMeL][aIle])) — 2-fold lower, 25 µM (≈ 17.9 µg/mL)

same assay, conditions: E. coli CFT073 ATCC 700928; Mueller Hinton II cation adjusted Broth with 0.002% v/v Tween-80; 35° C. for 22 hours; lowest concentration that completely prevented bacterial growth

`CCCCCC[C@H]1OC[C@@H](C)NC(=O)[C@H](COC[C@@H](F)CN)NC(=O)[C@H](CN)NC(=O)[C@H](C2CCCCC2)NC(=O)[C@H](CC(C)C)N(C)C(=O)[C@@H]1C` [Example 158, (3R,6S,9S,12S,15S,18R,19R)-6-(((S)-3-Amino-2-fluoropropoxy)methyl)-9-(aminomethyl)-12-cyclohexyl-19-hexyl-15-isobutyl-3,16,18-trimethyl-1-oxa-4,7,10,13,16-pentaazacyclononadecane-5,8,11,14,17-pentaone] (cyclo([Chg][Dap]S(X24)[X2][NMeL])) was tested, and the MIC was 12 µM (≈ 8.9 µg/mL).
